Data from paper PMC11606603, “The membrane domains of mammalian adenylyl cyclases are lipid receptors” (eLife, 2024).
“And” between values parts separate entries of the source, which are not always exact repeats. Equal entries are not always repeated.

How the values were obtained:
Format in all cases: biochemical
mAC6 = target: T1, mAC6 (Homo sapiens, UniProt O43306); experiment: AC assay, Gsα-stimulated mAC6 in membranes from transfected HEK293 cells; conditions: 20µM fatty acid concentration
T1 construct: Human mAC genes were from GenScript and fitted with a C-terminal FLAG-tag; FLAG (C); made in house; host or cells: HEK293, permanently transfected; membrane preparation
Protocol: (§1) hAC sequences were from NCBI were: ADCY1: NM_021116.3; ADCY2: NM_020546.2; ADCY3: NM_004036.4; ADCY4: NM_001198568.2; ADCY5: NM_183357.2; ADCY6: NM_015270.4; ADCY7: NM_001114.4; ADCY8: NM_001115.2; ADCY9: NM_001116.3. Human mAC genes were from GenScript and fitted with a C-terminal FLAG-tag. […] The gene was synthesized by GenScript. HEK293 cells were maintained in Dulbeccos Modified Eagle Medium (DMEM) with 10% fetal bovine serum at 37°C and 5% CO2. Transfection with AC plasmids was with PolyJet (SignaGen, Frederick, MD, USA). Permanent cell lines were generated by selection for 7 days with 600 µg/ml G418 and maintained with 300 µg/ml For membrane preparation, cells were tyrpsinized, collected by centrifugation (3000 × g, 5 min) and lysed and homogenized in 20 mM HEPES, pH 7.5, 1 mM Ethylenediaminetetraacetic acid (EDTA), 2 mM MgCl2, 1 mM Dithiothreitol (DTT), one tablet of cOmplete, EDTA-free (per 50 ml) and 250 mM sucrose by 20 strokes in a potter homogenizer on ice. Debris was removed (5 min at 1000 × g, 0°C), membranes were collected at 100,000 × g, 60 min at 0°C, suspended and stored at −80°C in 20 mM MOPS, pH 7.5, 0.5 mM EDTA, 2 mM MgCl2. […] Three cerebral cortices were dissected and homogenized in 4.5 ml cold 48 mM Tris–HCl, pH 7.4, 12 mM MgC1_2, and 0.1 mM Ethylene glycol-bis(β-aminoethyl ether)-N,N,N′,N′-tetraacetic acid (EGTA) with a Polytron hand disperser (Kinematica AG, Switzerland). […] The pellet was washed once with 5 ml 1 mM KHCO3. The final suspension in 2 ml 1 mM KHCO3 was stored in aliquots at −80°C.
(§2) In a volume of 10 μl, AC activities were measured using 1 mM ATP, 2 mM MgCl2, 3 mM creatine phosphate, 60 μg/ml creatine kinase, and 50 mM MOPS pH 7.5. The cAMP assay kit from Cisbio (Codolet, France) was used for detection according to the supplier’s instructions. For each assay, a cAMP standard curve was established. EC50 and IC50 values were calculated by GraphPad Prism version 8.4.3 for Windows, GraphPad Software, San Diego, CA, USA, https://www.graphpad.com .

mAC5 = target: T2, mAC5 (Homo sapiens, UniProt O95622); experiment: AC assay, Gsα-stimulated mAC5 in membranes from transfected HEK293 cells
T2 construct: Human mAC genes were from GenScript and fitted with a C-terminal FLAG-tag; FLAG (C); made in house; host or cells: HEK293, permanently transfected; membrane preparation
Protocol: as §1, §2

mAC8 = target: T3, mAC8 (Homo sapiens, UniProt P40145); experiment: AC assay, Gsα-stimulated mAC8 in membranes from transfected HEK293 cells; conditions: 20µM fatty acid concentration
T3 construct: Human mAC genes were from GenScript and fitted with a C-terminal FLAG-tag; FLAG (C); made in house; host or cells: HEK293, permanently transfected; membrane preparation
Protocol: as §1, §2

mAC7 = target: T4, mAC7 (Homo sapiens, UniProt P51828); experiment: AC assay, Gsα-stimulated mAC7 in membranes from transfected HEK293 cells; conditions: Figure 5-figure supplement 2 left, 20 µM
T4 construct: Human mAC genes were from GenScript and fitted with a C-terminal FLAG-tag; FLAG (C); made in house; host or cells: HEK293, permanently transfected; membrane preparation
Protocol: as §1, §2

mAC3 = target: T5, mAC3 (Homo sapiens, UniProt O60266); experiment: AC assay, Gsα-stimulated mAC3 in membranes from transfected HEK293 cells; conditions: for Effect of lipid on 300 nM Gsα-stimulated mAC3: 20 µM, in words; for mAC3 activity [%] (100% = 300nM Gsα stimulation): individual experiments
T5 construct: Human mAC genes were from GenScript and fitted with a C-terminal FLAG-tag; FLAG (C); made in house; host or cells: HEK293, permanently transfected; membrane preparation
Protocol: as §1, §2

mAC9 = target: T6, mAC9 (Homo sapiens, UniProt O60503); experiment: AC assay, Gsα-stimulated mAC9 in membranes from transfected HEK293 cells; conditions: for mAC9 activity (%);(100% = Gsα stimulation) stimulated by 300nM Gsα: single experiments; for EC50: enhancement of 300 nM Gsα-stimulated activity, read-out: EC50 for mAC9
T6 construct: Human mAC genes were from GenScript and fitted with a C-terminal FLAG-tag; FLAG (C); made in house; host or cells: HEK293, permanently transfected; membrane preparation
Protocol: as §1, §2

mAC1 = target: T7, mAC1 (Homo sapiens, UniProt Q08828); experiment: AC assay, Gsα-stimulated mAC1 in membranes from transfected HEK293 cells; conditions: 20 µM fatty acid; 300 nM Gsα; single experiments
T7 construct: Human mAC genes were from GenScript and fitted with a C-terminal FLAG-tag; FLAG (C); made in house; host or cells: HEK293, permanently transfected; membrane preparation
Protocol: as §1, §2

mAC2 = target: T8, mAC2 (Homo sapiens, UniProt Q08462); experiment: AC assay, Gsα-stimulated mAC2 in membranes from transfected HEK293 cells; conditions: Figure 5-figure supplement 1 left, 20 µM
T8 construct: Human mAC genes were from GenScript and fitted with a C-terminal FLAG-tag; FLAG (C); made in house; host or cells: HEK293, permanently transfected; membrane preparation
Protocol: as §1, §2

mAC4 = target: T9, mAC4 (Homo sapiens, UniProt Q8NFM4); experiment: AC assay, Gsα-stimulated mAC4 in membranes from transfected HEK293 cells; conditions: 20 µM fatty acid; 300 nM Gsα; single experiments
T9 construct: Human mAC genes were from GenScript and fitted with a C-terminal FLAG-tag; FLAG (C); made in house; host or cells: HEK293, permanently transfected; membrane preparation
T9 sequence (Q8NFM4 1-1077): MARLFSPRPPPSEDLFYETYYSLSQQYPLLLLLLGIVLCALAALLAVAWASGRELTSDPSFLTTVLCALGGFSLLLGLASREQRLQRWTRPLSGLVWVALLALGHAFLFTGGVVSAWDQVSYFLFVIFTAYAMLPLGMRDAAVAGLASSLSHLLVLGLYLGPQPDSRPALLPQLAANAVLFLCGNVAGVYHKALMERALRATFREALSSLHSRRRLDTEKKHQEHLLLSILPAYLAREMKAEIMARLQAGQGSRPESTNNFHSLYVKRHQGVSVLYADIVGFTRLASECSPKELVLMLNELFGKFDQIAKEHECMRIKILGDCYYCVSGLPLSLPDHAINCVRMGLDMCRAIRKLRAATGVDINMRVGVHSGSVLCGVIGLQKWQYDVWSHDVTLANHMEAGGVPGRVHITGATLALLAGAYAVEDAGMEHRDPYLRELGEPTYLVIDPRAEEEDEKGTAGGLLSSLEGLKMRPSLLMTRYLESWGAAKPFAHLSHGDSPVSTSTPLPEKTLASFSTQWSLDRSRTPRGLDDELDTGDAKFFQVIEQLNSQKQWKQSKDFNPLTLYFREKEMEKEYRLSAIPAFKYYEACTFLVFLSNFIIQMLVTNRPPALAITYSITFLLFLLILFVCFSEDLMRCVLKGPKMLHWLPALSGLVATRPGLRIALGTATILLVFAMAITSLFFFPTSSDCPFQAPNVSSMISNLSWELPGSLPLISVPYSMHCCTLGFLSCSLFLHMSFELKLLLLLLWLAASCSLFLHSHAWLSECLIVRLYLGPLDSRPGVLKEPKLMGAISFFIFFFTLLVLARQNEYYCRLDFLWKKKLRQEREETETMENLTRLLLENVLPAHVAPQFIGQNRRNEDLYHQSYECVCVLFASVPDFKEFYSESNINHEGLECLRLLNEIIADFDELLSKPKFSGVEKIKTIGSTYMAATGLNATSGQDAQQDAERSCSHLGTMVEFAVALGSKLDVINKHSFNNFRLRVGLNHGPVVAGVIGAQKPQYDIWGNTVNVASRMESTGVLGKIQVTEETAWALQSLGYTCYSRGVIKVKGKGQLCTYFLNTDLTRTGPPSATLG
Protocol: as §1, §2

T2 sequence (O95622 whole entry): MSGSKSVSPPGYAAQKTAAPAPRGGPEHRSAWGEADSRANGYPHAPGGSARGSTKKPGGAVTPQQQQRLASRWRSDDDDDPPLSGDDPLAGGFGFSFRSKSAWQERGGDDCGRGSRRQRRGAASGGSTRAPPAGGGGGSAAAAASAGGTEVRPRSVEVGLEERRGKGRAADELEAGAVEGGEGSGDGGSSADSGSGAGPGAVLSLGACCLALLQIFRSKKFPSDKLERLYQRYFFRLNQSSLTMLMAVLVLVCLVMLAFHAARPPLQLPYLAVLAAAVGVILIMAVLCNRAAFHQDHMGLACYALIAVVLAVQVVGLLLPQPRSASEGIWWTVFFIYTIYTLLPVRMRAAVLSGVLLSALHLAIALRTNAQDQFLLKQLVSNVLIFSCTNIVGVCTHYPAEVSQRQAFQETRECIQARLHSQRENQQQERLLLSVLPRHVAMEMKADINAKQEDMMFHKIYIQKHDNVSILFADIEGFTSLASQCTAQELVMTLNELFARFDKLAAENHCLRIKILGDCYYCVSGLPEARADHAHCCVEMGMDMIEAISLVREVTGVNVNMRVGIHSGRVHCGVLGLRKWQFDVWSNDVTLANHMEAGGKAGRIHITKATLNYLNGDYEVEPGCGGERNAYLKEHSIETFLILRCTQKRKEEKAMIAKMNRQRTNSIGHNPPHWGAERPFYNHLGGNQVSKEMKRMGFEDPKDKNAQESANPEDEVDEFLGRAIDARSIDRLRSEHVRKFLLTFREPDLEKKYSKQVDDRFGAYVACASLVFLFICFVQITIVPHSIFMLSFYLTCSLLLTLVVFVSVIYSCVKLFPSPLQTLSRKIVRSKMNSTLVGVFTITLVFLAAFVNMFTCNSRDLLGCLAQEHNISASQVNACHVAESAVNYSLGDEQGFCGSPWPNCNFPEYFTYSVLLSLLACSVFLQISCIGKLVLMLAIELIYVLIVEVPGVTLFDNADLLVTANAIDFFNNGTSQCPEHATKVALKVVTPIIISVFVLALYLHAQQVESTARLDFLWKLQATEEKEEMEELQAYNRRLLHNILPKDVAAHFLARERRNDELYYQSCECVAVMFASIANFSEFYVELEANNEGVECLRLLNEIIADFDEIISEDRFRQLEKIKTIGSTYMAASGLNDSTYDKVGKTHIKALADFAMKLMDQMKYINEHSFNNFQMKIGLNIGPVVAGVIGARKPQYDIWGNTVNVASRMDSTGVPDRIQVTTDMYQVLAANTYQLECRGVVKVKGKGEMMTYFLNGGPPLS
T7 sequence (Q08828 whole entry): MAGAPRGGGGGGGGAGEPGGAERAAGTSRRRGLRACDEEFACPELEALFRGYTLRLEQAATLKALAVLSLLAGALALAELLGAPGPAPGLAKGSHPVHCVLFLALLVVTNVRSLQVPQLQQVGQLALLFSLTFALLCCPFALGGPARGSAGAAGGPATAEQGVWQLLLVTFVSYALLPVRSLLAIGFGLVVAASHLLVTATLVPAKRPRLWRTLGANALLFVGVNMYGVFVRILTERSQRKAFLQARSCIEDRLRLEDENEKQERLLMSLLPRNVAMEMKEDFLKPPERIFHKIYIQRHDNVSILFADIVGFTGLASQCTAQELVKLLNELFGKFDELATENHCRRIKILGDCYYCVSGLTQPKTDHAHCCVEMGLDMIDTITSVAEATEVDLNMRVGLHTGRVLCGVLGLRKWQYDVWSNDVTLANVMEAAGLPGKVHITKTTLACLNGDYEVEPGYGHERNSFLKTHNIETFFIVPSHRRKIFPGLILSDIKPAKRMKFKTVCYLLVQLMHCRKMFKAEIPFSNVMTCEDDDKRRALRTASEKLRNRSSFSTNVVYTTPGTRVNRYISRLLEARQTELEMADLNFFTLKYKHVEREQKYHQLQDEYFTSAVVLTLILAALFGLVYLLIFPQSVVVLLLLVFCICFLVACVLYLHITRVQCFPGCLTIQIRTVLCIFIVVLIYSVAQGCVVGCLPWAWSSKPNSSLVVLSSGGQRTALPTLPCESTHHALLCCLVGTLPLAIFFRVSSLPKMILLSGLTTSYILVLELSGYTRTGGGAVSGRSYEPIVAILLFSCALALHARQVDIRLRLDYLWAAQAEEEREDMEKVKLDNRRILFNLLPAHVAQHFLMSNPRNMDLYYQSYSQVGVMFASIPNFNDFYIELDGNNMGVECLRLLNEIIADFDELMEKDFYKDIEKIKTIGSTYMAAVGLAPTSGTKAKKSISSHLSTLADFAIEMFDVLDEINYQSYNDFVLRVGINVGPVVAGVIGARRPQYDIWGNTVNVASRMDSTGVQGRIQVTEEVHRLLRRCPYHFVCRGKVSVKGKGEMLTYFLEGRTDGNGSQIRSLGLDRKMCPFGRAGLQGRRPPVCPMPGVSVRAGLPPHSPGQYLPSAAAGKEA
T8 sequence (Q08462 whole entry): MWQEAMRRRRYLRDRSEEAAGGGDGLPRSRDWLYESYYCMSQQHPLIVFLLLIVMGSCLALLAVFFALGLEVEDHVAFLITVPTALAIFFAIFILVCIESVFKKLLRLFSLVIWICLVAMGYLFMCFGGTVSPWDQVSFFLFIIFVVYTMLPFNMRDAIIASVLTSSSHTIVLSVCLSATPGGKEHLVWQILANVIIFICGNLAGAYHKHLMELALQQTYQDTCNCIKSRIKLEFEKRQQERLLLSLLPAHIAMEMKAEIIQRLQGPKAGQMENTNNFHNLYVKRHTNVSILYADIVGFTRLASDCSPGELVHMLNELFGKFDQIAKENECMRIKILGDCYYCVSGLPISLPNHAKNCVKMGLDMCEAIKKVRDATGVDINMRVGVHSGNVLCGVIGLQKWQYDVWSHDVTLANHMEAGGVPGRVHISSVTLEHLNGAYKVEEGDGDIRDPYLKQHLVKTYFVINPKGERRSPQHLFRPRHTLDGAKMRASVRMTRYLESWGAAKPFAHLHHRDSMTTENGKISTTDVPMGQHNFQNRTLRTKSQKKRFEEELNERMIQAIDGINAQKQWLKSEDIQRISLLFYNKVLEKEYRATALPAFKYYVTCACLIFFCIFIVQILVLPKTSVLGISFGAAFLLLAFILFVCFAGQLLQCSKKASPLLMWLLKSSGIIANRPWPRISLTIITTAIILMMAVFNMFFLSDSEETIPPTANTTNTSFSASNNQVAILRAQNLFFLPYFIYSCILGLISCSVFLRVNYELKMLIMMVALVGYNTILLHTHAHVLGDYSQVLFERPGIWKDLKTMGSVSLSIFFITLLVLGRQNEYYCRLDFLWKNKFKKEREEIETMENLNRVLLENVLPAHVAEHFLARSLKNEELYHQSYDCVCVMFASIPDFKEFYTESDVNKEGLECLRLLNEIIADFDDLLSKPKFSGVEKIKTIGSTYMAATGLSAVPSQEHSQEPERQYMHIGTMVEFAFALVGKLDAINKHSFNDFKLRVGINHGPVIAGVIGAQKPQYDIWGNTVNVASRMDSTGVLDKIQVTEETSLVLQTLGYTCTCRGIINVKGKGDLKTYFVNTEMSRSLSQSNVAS
T8 sequence (P63092 2-394 Q227L partner): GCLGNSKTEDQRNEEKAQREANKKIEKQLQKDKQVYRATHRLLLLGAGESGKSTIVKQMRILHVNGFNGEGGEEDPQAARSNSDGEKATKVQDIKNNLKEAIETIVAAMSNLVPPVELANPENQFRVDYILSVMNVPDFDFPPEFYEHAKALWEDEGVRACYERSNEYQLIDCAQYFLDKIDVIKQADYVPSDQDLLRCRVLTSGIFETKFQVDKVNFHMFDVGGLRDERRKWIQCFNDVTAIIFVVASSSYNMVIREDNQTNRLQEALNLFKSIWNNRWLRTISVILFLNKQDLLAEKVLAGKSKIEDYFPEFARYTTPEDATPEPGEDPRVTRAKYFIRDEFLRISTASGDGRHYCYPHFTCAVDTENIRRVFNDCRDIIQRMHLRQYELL
T4 sequence (P51828 whole entry): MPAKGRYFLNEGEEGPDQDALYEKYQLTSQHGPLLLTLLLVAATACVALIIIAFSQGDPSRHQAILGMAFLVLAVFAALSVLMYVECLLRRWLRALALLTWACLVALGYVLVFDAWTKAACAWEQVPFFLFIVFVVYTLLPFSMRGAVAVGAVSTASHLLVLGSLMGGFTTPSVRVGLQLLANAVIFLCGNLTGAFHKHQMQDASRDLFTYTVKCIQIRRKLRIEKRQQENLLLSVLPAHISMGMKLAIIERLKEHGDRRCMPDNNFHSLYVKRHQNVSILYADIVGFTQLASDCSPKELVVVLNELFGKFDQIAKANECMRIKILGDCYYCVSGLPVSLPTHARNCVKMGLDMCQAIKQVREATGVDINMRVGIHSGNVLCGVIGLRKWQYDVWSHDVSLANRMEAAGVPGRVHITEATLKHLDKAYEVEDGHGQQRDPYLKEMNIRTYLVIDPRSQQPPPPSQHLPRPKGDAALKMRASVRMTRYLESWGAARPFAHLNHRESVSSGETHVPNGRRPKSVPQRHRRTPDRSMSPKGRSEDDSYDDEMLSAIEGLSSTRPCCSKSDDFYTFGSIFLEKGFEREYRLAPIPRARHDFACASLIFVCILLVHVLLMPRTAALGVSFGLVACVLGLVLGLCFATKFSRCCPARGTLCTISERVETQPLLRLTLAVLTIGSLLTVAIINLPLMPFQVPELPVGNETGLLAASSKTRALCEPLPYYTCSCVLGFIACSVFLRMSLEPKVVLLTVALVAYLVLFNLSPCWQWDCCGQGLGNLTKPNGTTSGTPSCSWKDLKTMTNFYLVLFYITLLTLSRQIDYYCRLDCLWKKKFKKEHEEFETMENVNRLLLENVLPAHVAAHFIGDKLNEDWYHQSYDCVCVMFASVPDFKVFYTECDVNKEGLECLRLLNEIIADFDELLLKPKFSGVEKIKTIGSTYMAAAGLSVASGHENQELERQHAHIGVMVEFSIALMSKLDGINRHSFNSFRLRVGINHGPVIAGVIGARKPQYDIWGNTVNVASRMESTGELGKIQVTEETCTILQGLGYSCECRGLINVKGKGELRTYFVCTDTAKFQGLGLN
T4 sequence (P63092 2-394 Q227L partner): as the sequence (P63092 2-394 Q227L partner) above

| Compound | mAC6 activity [%] (100% = 300nM Gsα stimulation) (mAC6) | mAC5 activity [%] (100% = 300nM Gsα stimulation) (mAC5; 20µM fatty acid concentration) | mAC8 activity [%] (100% = 300nM Gsα stimulation) (mAC8) | mAC7 activity [%] (100% = 300nM Gsα stimulation); 20µM fatty acid concentration (mAC7) | Effect of lipid on 300 nM Gsα-stimulated mAC3 (mAC3) | mAC3 activity [%] (100% = 300nM Gsα stimulation) (mAC3; fatty acid 20 µM) | mAC9 activity (%);(100% = Gsα stimulation) stimulated by 300nM Gsα (mAC9; 3 µM fatty acid) | mAC9 activity (%);(100% = Gsα stimulation) stimulated by 300nM Gsα (mAC9; 6 µM fatty acid) | mAC9 activity (%);(100% = Gsα stimulation) stimulated by 300nM Gsα (mAC9; 10 µM fatty acid) | mAC1 activity [%] (100% = 300nM Gsα stimulation); 20µM fatty acid concentration (mAC1) | mAC2 activity [%] (100% = 300nM Gsα stimulation); 20µM fatty acid concentration (mAC2) | mAC4 activity [%] (100% = 300nM Gsα stimulation); 20µM fatty acid concentration (mAC4) | EC50 (mAC9) [µM] | further results |
| --- | --- | --- | --- | --- | --- | --- | --- | --- | --- | --- | --- | --- | --- | --- |
| CCCCC/C=C\C/C=C\CCCCCCCC(=O)O [Linoleic acid, Linoleic ((9Z,12Z)-octadecadienoic) acid] | 105% and 198% and 128% | 112% and 153% | 119% and 212% and 115% and 129% | 135% and 130% | efficient enhancers | 376% and 503% and 335% and 235% and 456% | 129% and 139% and 117% and 119% | 164% and 205% and 170% and 134% and 195% | 240% and 217% and 225% and 306% and 322% and 286% and 203% | 62% and 76% and 95% | 118% and 99% and 198% and 131% |  |  | mAC9 activity (%);(100% = Gsα stimulation) stimulated by 300nM Gsα (mAC9; 1 µM fatty acid): 145% and 101% and 154% and 180% |
| CCCCCCCCCCCC(=O)O [Lauric acid, Lauric (dodecanoic) acid] | 93% and 80% | 107% and 56% | 80% and 69% |  |  | 117% and 189% and 186% and 84% | 128% and 86% and 116% | 165% and 99% and 97% and 190% |  |  | 89% and 79% | 54% and 104% and 67% | 13.7 |  |
| CCCCCCCCCCCCCCCC(=O)O [Palmitic acid, Palmitic (hexadecanoic) acid] | 91% and 114% and 61% and 106% | 123% and 77% and 97% |  | 106% and 127% and 193% and 124% | less efficacious | 279% and 263% and 138% and 341% and 182% and 165% and 224% and 164% and 153% and 126% and 243% |  |  | 258% and 146% and 141% and 173% and 189% and 161% and 157% | 93% and 87% and 105% | 108% and 97% | 76% and 92% and 77% and 101% | 8.6 | mAC5 activity [%] (100% = 300nM Gsα stimulation) (mAC5; fatty acid 0.5 µM, individual experiments): 100%; mAC5 activity [%] (100% = 300nM Gsα stimulation) (mAC5; fatty acid 1 µM, individual experiments): 71% and 83% and 111%; mAC5 activity [%] (100% = 300nM Gsα stimulation) (mAC5; fatty acid 3 µM, individual experiments): 66% and 80% and 162%; mAC5 activity [%] (100% = 300nM Gsα stimulation) (mAC5; fatty acid 6 µM, individual experiments): 50% and 108% and 125%; mAC5 activity [%] (100% = 300nM Gsα stimulation) (mAC5; fatty acid 10 µM, individual experiments): 57% and 89% and 94% and 103%; mAC5 activity [%] (100% = 300nM Gsα stimulation) (mAC5; fatty acid 20 µM, individual experiments): 123% (2×) and 77% and 97%; Effect of lipid on 300 nM Gsα-stimulated mAC3 (mAC3; listed as palmitic acid): twofold; EC50 (mAC3; enhancement of 300 nM Gsα-stimulated activity): 6.4 µM; mAC3 activity [%] (100% = 300nM Gsα stimulation) (mAC3; fatty acid 0.5 µM): 100%; mAC3 activity [%] (100% = 300nM Gsα stimulation) (mAC3; fatty acid 1 µM): 166% and 108% and 118% (2×) and 87% and 83% and 122%; mAC3 activity [%] (100% = 300nM Gsα stimulation) (mAC3; fatty acid 3 µM): 122% and 126% and 125% and 136% and 114% and 107% and 116%; mAC3 activity [%] (100% = 300nM Gsα stimulation) (mAC3; fatty acid 6 µM): 107% and 145% and 118% and 129% and 73% and 158% and 259%; mAC3 activity [%] (100% = 300nM Gsα stimulation) (mAC3; fatty acid 10 µM): 188% and 338% and 172% and 339% and 112% and 94% and 165% and 197% and 126% and 128% and 237%; mAC9 activity (%);(100% = Gsα stimulation) stimulated by 300nM Gsα (mAC9; 20 µM fatty acid): 184% |
